Data published in US11939398B2, “Modified peptides for use in treating neurodegenerative disorders” (Neuro-Bio Ltd, priority 2016, dated 2024).
Entries after “also recorded” stand apart in the source; their conditions may differ. Where a SMILES comes first, the peptide text is derived from it. [ ]: non-standard residue; d: D form. Bpa = N[C@@H](Cc1ccc(C(=O)c2ccccc2)cc1)C(=O)O; Phe(4-NH2) = Nc1ccc(C[C@H](N)C(=O)O)cc1; 2Nal = N[C@@H](Cc1ccc2ccccc2c1)C(=O)O; hArg = N=C(N)NCCCC[C@H](N)C(=O)O

Assays:
PC12 cells [1] = assay: Calcium fluorometry (Fluo-8, PNU282987-induced calcium increase) in PC12 cells; format: cell-based; settings: in conjunction with T30, PC12 cells
Experimental: PC12 cells were plated in 200 μl of Dulbecco's Modified Eagle's medium (DMEM) plus 2 mM of L-glutamine medium the day before the experiment in 96 well plates. On the day of the experiment, the Fluo-8 solution (Abcam) was prepared as described by the provider by adding 20 μl of Fluo-8 in the assay buffer that contains 9 ml of Hank's Balanced Salt Solution (HBSS) and 1 ml of pluronic F127 Plus. Subsequently, 100 μl of growth medium was removed and 100 μl of Fluo-8 solution were added. Treatments with T30 in conjunction with NBP14 or Tri peptides were added and incubated for 30 minutes in the incubator and 30 minutes room temperature. After 1 h, the plate was placed in the fluorescence plate reader (Fluostar, Optima, BMG Labtech, Ortenberg, Germany). Before reading the fluorescence, PNU282987 1 μM, an alpha7 specific agonist of the nicotinic receptors, was prepared and placed in the Fluostar injector. For each well, the reading was formed by a basal fluorescence reading followed by PNU282987 injection that induced an increase of calcium via nicotinic receptors.
In each of the different cell techniques, the statistics analysis was performed with the average of the percentage values of 3 or more experiments. Comparisons between multiple treatment groups and the same control were performed by one-way analysis of variance (ANOVA) and Tukey's post-hoc tests using GraphPAD Instat (GraphPAD software, San Diego, California). Statistical significance was taken at a p value<0.05.

[2] = stability / degradation in human blood; format: in vitro ADME
Experimental: (§1) Test compounds were spiked at 10 μg/ml into either PBS or blood (Male Wistar rat or Human) diluted with PBS, and a series of samples taken according to the following scheme:
(§2) Procaine, a compound known to be unstable in blood, was included as a positive control (ran with 5-fold diluted blood only). The sampling procedure was to add an aliquot to ice-cold acetonitrile, centrifuge, and store the supernatant on dry ice until analysis. Analysis by UHPLC-TOF mass spectrometry using electrospray ionisation was performed on the same day as the incubations were performed.

[3] = stability / degradation in rat blood; format: in vitro ADME; settings: for stability in blood / degradants detected: rat blood diluted with PBS; for degradants detected: UHPLC-TOF MS
Experimental: as §1, §2

[4] = system: rat basal forebrain slices; assay: voltage-sensitive dye imaging (VSDI) on brain slices, Example 7; format: cell-based
Experimental: Brain slices were prepared as in Example 5.
Slices were placed in a dark, high humidity chamber filled with aCSF bubbling with 95% O2e5% CO2. Once there, the dye solution (4% 0.2 mM styryl dye pyridinium 4-[2-[6-(dibutylamino)-2-aphthalenyl]-ethenyl]-1-(3-sulfopropyl)hydroxide (Di-4-ANEPPS, Invitrogen, Paisley, UK) (Tominaga et al., 2000) in aCSF 48%, fetal bovine serum 48%, DMSO 3.5% and cremophore EL 0.4%) was applied to the slices for 20-25 min before being transferred to an aCSF bubbler pot (room temperature, 22 C+/−1.5 C) for 1 h to wash off excess dye and recover.
When starting VSD recordings, slices were placed in the recording bath on a small piece of filter paper to keep slice alive and was weighed down appropriately using a home-made plastic grid placed atop the slice. The perfusing bath solution was heated to 30+/−1 C by a stage heater. A concentric bipolar stimulating electrode (FHC, Maine, US) was placed in the ventral diagonal band of the basal forebrain with stimulation being set at 30 V. For acquiring of VSD data, 16-bit images were recorded with 1 ms resolution with a digital camera (Brain Vision MiCAM Ultima R3-V20 Master) with Ultima 2004/08 imaging software (Brain Vision) coupled to Spike 2 V6.0 (CED Ltd, Cambridge, UK) which was used to trigger stimulations with respect to appropriate ISI. […]

[5] = system: rat basal forebrain slices; assay: voltage-sensitive dye imaging (VSDI) on brain slices, Example 5; format: cell-based
Experimental: Male Wistar rats (14 days old) were anaesthetised using isoflurane (˜15 ml, 100% w/w). Isoflurane was applied to the cotton bed at the bottom of an anaesthetic chamber (glass box 20×15×15 cm) where rats were then placed for approximately 45 s until complete anaesthesia was reached. The hind paw of each anaesthetised rat was pinched to check for the appropriate depth of anaesthesia. Upon confirmation of anaesthesia, rats were quickly decapitated, with the brain being quickly removed and immersed in ice cold oxygenated ‘slicing’ artificial cerebrospinal fluid (aCSF in mmol: 120 NaCl, 5 KCL, 20 NaHCO3, 2.4 CaCl2 2 MgSO4, 1.2 KH2PO4, 10 glucose, 6.7 HEPES salt and 3.3 HEPES acid; pH=7.1). Coronal slices (400 μm thick) were then taken from a block of brain containing the basal forebrain, namely the MS-dBB complex (between +9.20 and +9.48 mm Interaural and +0.48 and +0.2 mm Bregma, FIG. 4A) and the somatosensory barrel field cortex (SiBF, between +8.08 and +7.20 mm Interaural and −0.92 mm and −1.80 mm Bregma) (Paxinos and Watson, 1998) using a Vibratome (Leica VTi000S).
Slices were then transferred to a bubbler pot containing oxygenated aCSF at room temperature (recording aCSF in mmol: 124 NaCl, 5 KCL, 20 NaHCO3, 2.4 CaCl2 2 MgSO4, 1.3 KH2PO4, 10 glucose; pH=7.4) which was identical to that used in VSDI (voltage sensitive dye imaging) recording. Slices were then left for approximately 1-1.5 hours before preparing them for VSD staining.
Slices were placed in a dark, high humidity chamber filled with aCSF bubbled with 95% O2, 5% CO2. Once there, the dye solution (4% 0.2 mM styryl dye pyridinium 4-[2-[6-(dibutylamino)-2-napthalenyl]-ethenyl]-1-(3-sulfopropyl)hydroxide (Di-4-NEPPS), Invitrogen, Paisley, UK in 48% aCSF, 48% foetal bovine serum, 3.5% DMSO and 0.4% cremophore EL) (Tominaga et al., 2000) was applied to the slices for 20-25 minutes before being transferred back to a bubbler pot containing oxygenated aCSF kept at room temperature for 30 minutes.
When starting the VSDI recordings, slices were placed in the recording bath on a small piece of filter paper to allow the flow of oxygenated aCSF on the underside of the slice and in order to keep it alive. The slice was then weighed down by a home-made plastic grid that was placed on top of the slice. […] For the acquisition of VSD data, 2 dimensional images, equivalent to 88×60 pixels, were recorded using the MiCamo2 High Resolution camera (Brain Vision, Japan) with BV_Analyze imaging software. […] Light was generated using an Osram halogen xenophot 64634 HLX EFR Display/Optic lamp and was filtered to emit green (530±10 nm) light using a MHF-G150LR (Moritex Corporation) coupled to the MiCamo2 High resolution imaging system and filtered the emitted fluorescence through a >590 nm high pass filter. […]

PC12 cells [6] = assay: AChE activity assay (Ellman reagent) in PC12 cells treated with T30; format: cell-based; settings: combined with T30 (1 μM)
Experimental: AChE activity was measured using the Ellman reagent that measures the presence of thiol groups as a result of AChE activity. In the case of the G4 experiment, AChE (G4) activity was tested alone and also together with either NBP14 or Tri peptides. PC12 cells were plated the day before the experiment as for the cell viability assay. Cells were treated with T30 (1 μM) alone or combined with NBP14 or Tri peptide (0.5 μM). After treatment, supernatant (perfusate) of each treatment was collected and 25 μL from each condition were added to a new flat bottomed 96 well plate followed by the addition of 175 μl of Ellman reagent (Solution A: KH2PO4 139 mM and K2HPO4 79.66 mM, pH 7.0; solution B (substrate): Acetylthiocholine Iodide 11.5 mM; Solution C (Reagent): 5,5′-dithiobis(2-nitrobenzoic acid) 8 mM and NaHCO3 15 mM). The Ellman reagent was prepared as a mixture of the 3 solutions in a ratio 33(A):3(B):4(C). Absorbance measurements were taken for an interval of 60 minutes across experiments at 405 nm in a Vmax plate reader (Molecular devices, Wokingham, UK).
In each of the different cell techniques, the statistics analysis was performed with the average of the percentage values of 3 or more experiments. […]

[7] = human blood diluted with PBS, 10 μg/ml, up to 60 min

Compound | protection against T30-induced calcium influx (PC12 cells [1]) | stability in blood [2, 7] | stability in blood ([3]; 10 μg/ml, up to 60 min) | degradants detected [3] | effect on T30-induced inhibition of basal forebrain activity ([4]; 2 μM Tri04 co-perfused with 2 μM T30, n=29) | effect on T30-induced inhibition of basal forebrain activity ([4]; 4 μM Tri04 co-perfused with 2 μM T30, n=20) | turnover ([2]; 5-fold diluted human blood, 10 μg/ml, up to 60 min) | turnover ([3]; 5-fold diluted rat blood, 10 μg/ml, up to 60 min) | degradants detected ([2]; human blood diluted with PBS, UHPLC-TOF MS) | blocking of T30-induced deviations from baseline (VSDI) ([5]; 4 μM co-perfused with T30 (2 uM)) | change in magnitude (summed fluorescence) of evoked responses, compound alone ([5]; 4 μM in perfusate, no T30) | protection against T30-induced AChE activity (PC12 cells [6])
CC(=O)N[C@@H](Cc1ccc(C(=O)c2ccccc2)cc1)C(=O)N[C@@H](CCCCNC(=N)N)C(=O)N[C@@H](Cc1ccc(N)cc1)C(N)=O [Tri04, 4-((S)-2-((S)-2-((S)-2-acetamido-3-(4-benzoylphenyl)propanamido)-6-((amino(iminio)methyl)amino)hexanamido)-3-amino-3-oxopropyl)benzenaminium] (Ac-[Bpa]-[hArg]-[Phe(4-NH2)]-NH2) | protects the toxic effects of T30 by reducing calcium influx | better stability than TRI-02 | better stability than TRI-02 | some degradants were still detected | significant effect on basal forebrain population activity; also recorded: reversal of the inhibitory effect of T30; also recorded: increase in network activity; also recorded: protective role of Tri04 over T30 | totally block the T30-induced effects; also recorded: recapitulates results previously seen with the application of 4 μM NBP14; also recorded: significant effect reversing T30 activity |  |  |  |  |  | 
CCN(CC)CCOC(=O)c1ccc(N)cc1 [Procaine, reference compound] |  |  |  |  |  |  | 100% | 60% |  |  |  | 
CC(=O)N[C@@H](Cc1ccc2ccccc2c1)C(=O)N[C@@H](Cc1ccc(N)cc1)C(=O)N[C@@H](Cc1c[nH]c2ccccc12)C(N)=O [Tri02, 4-((S)-2((S)-2-acetamido-3-(naphthalene-2-yl)propanamido)-3-(((S)-1-amino-3-(1H-indol-3-yl)-1-oxopropan-2-yl)amino)-3-oxopropyl)benzenaminium] (Ac-[2Nal]-[Phe(4-NH2)]-Trp-NH2) | protects against the toxic effects of T30 | some instability | some instability | a variety of degradants were detected |  |  |  |  | a variety of degradants were detected | not found to protect against T30-induced deviations from baseline; also recorded: some efficacy in blocking those T30-induced deviation | recapitulates results seen with application of 4 μM NBP14; also recorded: small alterations | protects against the toxic effects of T30
